Reference: patent US10294202B2, “Pyrrolidinones as herbicides” (FMC Corporation, priority 2013, dated 2019)

How the values were obtained:
[1] = system: corn; assay: Test A pre-/postemergence herbicide test; type: in vivo, Zea mays; settings: Postemergence
Method in brief: (§1)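 Greenhouse pot test with pre- and postemergence application of surfactant-containing solvent formulations. Postemergence plants were 2–10 cm, one- to two-leaf stage. Response scored visually after ~10 days, 0 (no effect) to 100 (complete control).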

[2] = system: nutsedge, yellow; assay: Test C pre-/postemergence herbicide test; type: in vivo, Cyperus esculentus
Method in brief: (§2)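 Greenhouse pots; formulation = non-phytotoxic solvent mix + surfactant. PRE onto seeds in loam:sand; POST at 1–4 leaves (2–18 cm) in peat moss/vermiculite medium. Read-out: visual % control vs untreated, day 13–15.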

[3] = system: galium; assay: Test C pre-/postemergence herbicide test; type: in vivo, Galium aparine
Method in brief: as §2

[4] = system: pigweed; assay: Test A pre-/postemergence herbicide test; type: in vivo, Amaranthus retroflexus
Method in brief: as §1

[5] = system: giant foxtail; assay: Test A pre-/postemergence herbicide test; type: in vivo, Setaria faberii
Method in brief: as §1

[6] = system: ryegrass, Italian; assay: Test C pre-/postemergence herbicide test; type: in vivo, Lolium multiflorum
Method in brief: as §2

[7] = system: rice; assay: Test B flooded paddy test; type: in vivo, Oryza sativa; settings: 500 g ai/ha, Flood; scale of 0 to 100 where 0 is no effect and 100 is complete control
Method in brief: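 Treatment was made at the 2-leaf stage by dosing the standing floodwater, kept 3 cm above soil level for the whole test. Greenhouse exposure lasted 13 to 15 days. Response is a visual percent rating relative to controls, where a dash indicates no test result.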

[8] = system: ragweed; assay: Test C pre-/postemergence herbicide test; type: in vivo, Ambrosia elatior
Method in brief: as §2

[9] = system: waterhemp; assay: Test C pre-/postemergence herbicide test; type: in vivo, Amaranthus rudis
Method in brief: as §2

[10] = system: pigweed; assay: Test C pre-/postemergence herbicide test; type: in vivo, Amaranthus retroflexus
Method in brief: as §2

[11] = system: johnsongrass; assay: Test C pre-/postemergence herbicide test; type: in vivo, Sorghum halepense
Method in brief: as §2

[12] = Postemergence, 31 g ai/ha, scale 0 to 100 (0 no effect, 100 complete control)
[13] = Postemergence, 62 g ai/ha, scale 0 (no effect) to 100 (complete control)
[14] = Postemergence, 125 g ai/ha, scale 0 to 100 (0 no effect, 100 complete control)
[15] = Postemergence, 250 g ai/ha, scale 0 to 100 (0 no effect, 100 complete control)
[16] = Preemergence, 31 g ai/ha, scale 0 to 100, 0 is no effect and 100 is complete control
[17] = Preemergence, 62 g ai/ha, scale 0 to 100 (0 no effect, 100 complete control)
[18] = Preemergence, 125 g ai/ha, scale 0 to 100 (0 no effect, 100 complete control)
[19] = 125 g ai/ha, visual rating, 0 to 100 scale, 0 no effect, 100 complete control, approximately 10 days, preemergence
[20] = Postemergence, 125 g ai/ha, 0 to 100 scale, 0 is no effect, 100 is complete control
[21] = preemergence, 500 g ai/ha, 0 to 100 scale, 0 is no effect and 100 is complete control
[22] = Preemergence, 125 g ai/ha, scale 0 to 100
[23] = Postemergence, 125 g ai/ha, visual rating on 0 to 100 scale (0 no effect, 100 complete control), approx. 10 days
[24] = Postemergence, 500 g ai/ha, 0 to 100 scale (0 no effect, 100 complete control)
[25] = Preemergence, 125 g ai/ha, 0 to 100 scale where 0 is no effect and 100 is complete control
[26] = Preemergence, 500 g ai/ha, visual rating on 0 to 100 scale (0 no effect, 100 complete control)

O=C1NCC(c2ccc(C(F)(F)F)cc2)C1C(=O)Nc1cccc(F)c1F (racemic) [Compound 202]
Plant response rating, Corn ([1]; 125 g ai/ha, 0 to 100 scale, 0 is no effect, 100 is complete control): 80
Corn plant response rating (0 to 100 scale, 0 is no effect, 100 is complete control) ([1]; 500 g ai/ha): 90
Plant response rating, Nutsedge, Yellow [2, 12]: 0
Plant response rating, Nutsedge, Yellow [2, 13]: 0
Plant response rating, Nutsedge, Yellow [2, 14]: 0
Plant response rating, Nutsedge, Yellow [2, 15]: 0
Nutsedge, Yellow plant response rating [2, 16]: 0
Nutsedge, Yellow plant response rating [2, 17]: 0
Plant response rating, Nutsedge, Yellow [2, 18]: 0
Plant response rating (scale of 0 to 100), Nutsedge, Yellow ([2]; Preemergence, 250 g ai/ha): 0
Plant response rating, Galium [3, 12]: 80
Plant response rating, Galium [3, 13]: 80
Plant response rating, Galium [3, 14]: 80
Plant response rating, Galium [3, 15]: 80
Galium plant response rating [3, 16]: 85
Galium plant response rating [3, 17]: 90
Plant response rating, Galium [3, 18]: 90
Plant response rating (scale of 0 to 100), Galium ([3]; Preemergence, 250 g ai/ha): 90
Plant response rating, Pigweed [4, 19]: 60
Plant response rating, Pigweed [4, 20]: 70
Pigweed plant response rating (0 to 100 scale, 0 is no effect, 100 is complete control) ([4]; Postemergence, 500 g ai/ha): 80
Plant response rating, Pigweed [4, 21]: 70
Plant response rating, Foxtail, Giant [5, 19]: 90
Plant response rating, Foxtail, Giant [5, 20]: 90
Foxtail, Giant plant response rating (0 to 100 scale, 0 is no effect, 100 is complete control) ([5]; Postemergence, 500 g ai/ha): 90
Plant response rating, Foxtail, Giant [5, 21]: 90
Plant response rating, Ryegrass, Italian [6, 12]: 0
Plant response rating, Ryegrass, Italian [6, 13]: 0
Plant response rating, Ryegrass, Italian [6, 14]: 5
Plant response rating, Ryegrass, Italian [6, 15]: 35
Ryegrass, Italian plant response rating [6, 16]: 0
Ryegrass, Italian plant response rating [6, 17]: 30
Plant response rating, Ryegrass, Italian [6, 18]: 30
Plant response rating (scale of 0 to 100), Ryegrass, Italian ([6]; Preemergence, 250 g ai/ha): 5
Plant response rating, Rice [7]: 15
Plant response rating, Ragweed [8, 12]: 70
Plant response rating, Ragweed [8, 13]: 75
Plant response rating, Ragweed [8, 14]: 80
Plant response rating, Ragweed [8, 15]: 85
Ragweed plant response rating [8, 16]: 65
Ragweed plant response rating [8, 17]: 85
Plant response rating, Ragweed [8, 18]: 85
Plant response rating (scale of 0 to 100), Ragweed ([8]; Preemergence, 250 g ai/ha): 100
Plant response rating, Waterhemp [9, 12]: 60
Plant response rating, Waterhemp [9, 13]: 65
Plant response rating, Waterhemp [9, 14]: 75
Plant response rating, Waterhemp [9, 15]: 85
Waterhemp plant response rating [9, 16]: 85
Waterhemp plant response rating [9, 17]: 95
Plant response rating, Waterhemp [9, 18]: 100
Plant response rating (scale of 0 to 100), Waterhemp ([9]; Preemergence, 250 g ai/ha): 100
Plant response rating, Pigweed [10, 12]: 80
Plant response rating, Pigweed [10, 13]: 80
Plant response rating, Pigweed [10, 14]: 85
Plant response rating, Pigweed [10, 15]: 85
Pigweed plant response rating [10, 16]: 85
Pigweed plant response rating [10, 17]: 85
Plant response rating, Pigweed [10, 18]: 90
Plant response rating (scale of 0 to 100), Pigweed ([10]; Preemergence, 250 g ai/ha): 100
Plant response rating, Johnsongrass [11, 12]: 0
Plant response rating, Johnsongrass [11, 13]: 20
Plant response rating, Johnsongrass [11, 14]: 25
Plant response rating, Johnsongrass [11, 15]: 25
Johnsongrass plant response rating [11, 16]: 10
Johnsongrass plant response rating [11, 17]: 60
Plant response rating, Johnsongrass [11, 18]: 70
Plant response rating (scale of 0 to 100), Johnsongrass ([11]; Preemergence, 250 g ai/ha): 85

O=C1NCC(c2cccc(Br)c2)C1C(=O)Nc1ccc(F)c(F)c1F (centres unmarked) [Compound 310]
Plant response rating, Corn ([1]; 125 g ai/ha, visual rating on 0 to 100 scale (0 no effect, 100 complete control), approx. 10 days): 20
Plant response rating, Corn ([1]; 500 g ai/ha, 0 to 100 scale (0 no effect, 100 complete control)): 50
Plant response rating, Nutsedge, Yellow [2, 12]: 0
Plant response rating, Nutsedge, Yellow [2, 13]: 0
Plant response rating, Nutsedge, Yellow [2, 14]: 0
Plant response rating, Nutsedge, Yellow [2, 15]: 25
Nutsedge, Yellow plant response rating [2, 16]: 0
Nutsedge, Yellow plant response rating [2, 17]: 0
Plant response rating, Nutsedge, Yellow [2, 22]: 0
Plant response rating (scale of 0 to 100), Nutsedge, Yellow ([2]; Preemergence, 250 g ai/ha): 0
Plant response rating, Galium [3, 12]: 35
Plant response rating, Galium [3, 13]: 50
Plant response rating, Galium [3, 14]: 50
Plant response rating, Galium [3, 15]: 65
Galium plant response rating [3, 16]: 0
Galium plant response rating [3, 17]: 0
Plant response rating, Galium [3, 22]: 0
Plant response rating (scale of 0 to 100), Galium ([3]; Preemergence, 250 g ai/ha): 70
Plant response rating, Pigweed [4, 23]: 0
Plant response rating, Pigweed [4, 24]: 0
Plant response rating, Pigweed [4, 25]: 40
Pigweed plant response rating [4, 26]: 40
Plant response rating, Foxtail, Giant [5, 23]: 90
Plant response rating, Foxtail, Giant [5, 24]: 90
Plant response rating, Foxtail, Giant [5, 25]: 90
Foxtail, Giant plant response rating [5, 26]: 90
Plant response rating, Ryegrass, Italian [6, 12]: 0
Plant response rating, Ryegrass, Italian [6, 13]: 0
Plant response rating, Ryegrass, Italian [6, 14]: 0
Plant response rating, Ryegrass, Italian [6, 15]: 5
Ryegrass, Italian plant response rating [6, 17]: 0
Plant response rating, Ryegrass, Italian [6, 22]: 20
Plant response rating (scale of 0 to 100), Ryegrass, Italian ([6]; Preemergence, 250 g ai/ha): 25
Plant response rating, Rice [7]: 0
Plant response rating, Ragweed [8, 12]: 10
Plant response rating, Ragweed [8, 13]: 10
Plant response rating, Ragweed [8, 14]: 20
Plant response rating, Ragweed [8, 15]: 60
Ragweed plant response rating [8, 17]: 0
Plant response rating, Ragweed [8, 22]: 5
Plant response rating (scale of 0 to 100), Ragweed ([8]; Preemergence, 250 g ai/ha): 35
Plant response rating, Waterhemp [9, 12]: 5
Plant response rating, Waterhemp [9, 13]: 10
Plant response rating, Waterhemp [9, 14]: 10
Plant response rating, Waterhemp [9, 15]: 10
Waterhemp plant response rating [9, 17]: 0
Plant response rating, Waterhemp [9, 22]: 25
Plant response rating (scale of 0 to 100), Waterhemp ([9]; Preemergence, 250 g ai/ha): 25
Plant response rating, Pigweed [10, 12]: 35
Plant response rating, Pigweed [10, 13]: 40
Plant response rating, Pigweed [10, 14]: 60
Plant response rating, Pigweed [10, 15]: 70
Pigweed plant response rating [10, 16]: 0
Pigweed plant response rating [10, 17]: 5
Plant response rating, Pigweed [10, 22]: 20
Plant response rating (scale of 0 to 100), Pigweed ([10]; Preemergence, 250 g ai/ha): 20
Plant response rating, Johnsongrass [11, 12]: 0
Plant response rating, Johnsongrass [11, 13]: 0
Plant response rating, Johnsongrass [11, 14]: 0
Plant response rating, Johnsongrass [11, 15]: 5
Johnsongrass plant response rating [11, 16]: 0
Johnsongrass plant response rating [11, 17]: 0
Plant response rating, Johnsongrass [11, 22]: 45
Plant response rating (scale of 0 to 100), Johnsongrass ([11]; Preemergence, 250 g ai/ha): 75
